Results reported in the supplement of paper PMC11061612.

Assays:
[1] = test system: CAL-54 (Kidney Carcinoma); experiment: Bliss excess, mean over the matrix (fraction); higher = more synergy
Method in brief: (§1)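 Cell lines in DMEM/F12 or RPMI with 10% FBS were plated in 1536-well plates, held 24 hours at 37°C, 5% CO2, then given two-drug dose matrices for 72 hours (DMSO typically 0.2%). Viability was read by CellTiter-Glo 2.0 luminescence and scaled as inhibition from 0 (vehicle wells) to 1 (blank wells). Combination Emax is the second-highest inhibition in the matrix; Bliss excess is observed combination effect minus expected EA + EB − EA·EB, EA and EB being single-agent effects.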

[2] = test system: CAPAN-1 (Pancreatic Carcinoma); experiment: as above
Method in brief: as §1

[3] = test system: HARA (Squamous Cell Lung Carcinoma); experiment: as above
Method in brief: as §1

[4] = test system: LB771-HNC (Head and Neck Carcinoma); experiment: as above
Method in brief: as §1

[5] = test system: 8305C (Thyroid Gland Carcinoma); experiment: combination Emax (second highest fraction inhibited in the dose matrix, 72 h); higher = more inhibition; extreme values may be limits of the assay
Method in brief: as §1

[6] = test system: HCC-15 (Squamous Cell Lung Carcinoma); experiment: as above
Method in brief: as §1

[7] = test system: HDLM-2 (Hodgkin's Lymphoma); experiment: as above
Method in brief: as §1

[8] = test system: KYSE-410 (Esophageal Squamous Cell Carcinoma); experiment: as above
Method in brief: as §1

NB14 (Neuroblastoma) = experiment: as above
Method in brief: as §1

NCI-H28 (Mesothelioma) = experiment: as above
Method in brief: as §1

[9] = test system: NCI-H69 (Small Cell Lung Carcinoma); experiment: as above
Method in brief: as §1

[10] = test system: NCI-H747 (Colorectal Carcinoma); experiment: as above
Method in brief: as §1

[11] = test system: OVCAR-8 (Ovarian Carcinoma); experiment: as above
Method in brief: as §1

[12] = test system: RKO (Colorectal Carcinoma); experiment: as above
Method in brief: as §1

[13] = test system: RPMI-6666 (Non-Cancerous); experiment: as above
Method in brief: as §1

[14] = test system: RT-112 (Bladder Carcinoma); experiment: as above
Method in brief: as §1

[15] = test system: SK-OV-3 (Ovarian Carcinoma); experiment: as above
Method in brief: as §1

[16] = test system: SUP-T1 (T-Lymphoblastic Leukemia); experiment: as above
Method in brief: as §1

[17] = test system: TE-4 (Esophageal Squamous Cell Carcinoma); experiment: as above
Method in brief: as §1

[18] = test system: UMC-11 (Other Solid Carcinomas); experiment: as above
Method in brief: as §1
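For Bliss excess, mean over the matrix in this document: after 72 h of two-drug dosing.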

Compound	Bliss excess [1]	Bliss excess [2]	Bliss excess [3]	Bliss excess [4]	combination Emax [5]	combination Emax [6]	combination Emax [7]	combination Emax [8]	combination Emax (NB14 (Neuroblastoma))	combination Emax (NCI-H28 (Mesothelioma))	combination Emax [9]	combination Emax [10]	combination Emax [11]	combination Emax [12]	combination Emax [13]	combination Emax [14]	combination Emax [15]	combination Emax [16]	combination Emax [17]	combination Emax [18]
COc1nnc2ccc(N3CCC(c4ccc(OCCN5CCN(C)C(=O)[C@H]5C)cc4)CC3)nn12 [AZD5153] + CCN(CCO)CCCOc1ccc2c(Nc3cc(CC(=O)Nc4cccc(F)c4)[nH]n3)ncnc2c1 [AZD2811] (first compound max 1 µM, 7x7, partner max 1 µM)	-0.0225	-0.08	-0.0548	-0.0006	0.594	0.74	0.434	0.313	0.858	0.518	0.782	0.734	0.804	0.812	0.634	0.357	0.376	0.786	0.467	0.843
COc1nnc2ccc(N3CCC(c4ccc(OCCN5CCN(C)C(=O)[C@H]5C)cc4)CC3)nn12 [AZD5153] + C[C@@H]1COCCN1C2=NC(=NC(=C2)C3(CC3)[S@](=N)(=O)C)C4=C5C=CNC5=NC=C4 [AZD6738] (first compound max 1 µM, 7x7, partner max 10 µM)	-0.0043	-0.022	-0.0012	0.0467	0.674	0.513	0.525	0.484	0.97	0.659	0.735	0.809	0.924	0.923	0.834	0.737	0.481	0.844	0.898	0.912
COc1nnc2ccc(N3CCC(c4ccc(OCCN5CCN(C)C(=O)[C@H]5C)cc4)CC3)nn12 [AZD5153] + Cc1c2c(nn1C)CSCc1cc(n(C)n1)CSc1cc(c3ccccc3c1)OCCCc1c(C(=O)O)n(C)c3c-2c(Cl)ccc13 [AZD5991] (first compound max 1 µM, 7x7, partner max 1 µM)	-0.0396	-0.0534	-0.0142	0.0475	0.545	0.535	0.987	0.348	0.934	0.465	0.507	0.734	0.905	0.78	0.804	0.922	0.413	0.726	0.847	0.994
COc1nnc2ccc(N3CCC(c4ccc(OCCN5CCN(C)C(=O)[C@H]5C)cc4)CC3)nn12 [AZD5153] + Cn1cnc2c(F)c(Nc3ccc(Br)cc3Cl)c(C(=O)NOCCO)cc21 [Selumetinib] (first compound max 1 µM, 7x7, partner max 10 µM)	-0.0165	-0.0226	0.0308	-0.0895	0.576	0.693	0.393	0.345	0.892	0.502	0.543	0.937	0.759	0.88	0.692	0.436	0.404	0.718	0.871	0.704
Cc1c2c(nn1C)CSCc1cc(n(C)n1)CSc1cc(c3ccccc3c1)OCCCc1c(C(=O)O)n(C)c3c-2c(Cl)ccc13 [AZD5991] + C=CCn1c(=O)c2cnc(Nc3ccc(N4CCN(C)CC4)cc3)nc2n1-c1cccc(C(C)(C)O)n1 [AZD1775] (first compound max 1 µM, partner max 1 µM)	-0.0522	-0.0981	0.0014	0.0271	0.646	0.55	1	0.625	1	0.416	0.266	0.598	0.865	0.69	0.93	0.981	0.597	0.847	0.801	0.784
Cc1c2c(nn1C)CSCc1cc(n(C)n1)CSc1cc(c3ccccc3c1)OCCCc1c(C(=O)O)n(C)c3c-2c(Cl)ccc13 [AZD5991] + CC1(C)CCC(CN2CCN(c3ccc(C(=O)NS(=O)(=O)c4ccc(NCC5CCOCC5)c([N+](=O)[O-])c4)c(Oc4cnc5[nH]ccc5c4)c3)CC2)=C(c2ccc(Cl)cc2)C1 [Venetoclax] (first compound max 1 µM, 7x7, partner max 1 µM)	-0.0151	-0.0459	-0.0091	0.0035	0.379	0.323	1	0.156	1	0.185	0.522	0.196	0.189	0.225	0.911	0.99	0.219	0.304	0.261	0.821
Cc1c2c(nn1C)CSCc1cc(n(C)n1)CSc1cc(c3ccccc3c1)OCCCc1c(C(=O)O)n(C)c3c-2c(Cl)ccc13 [AZD5991] + CCN(CCO)CCCOc1ccc2c(Nc3cc(CC(=O)Nc4cccc(F)c4)[nH]n3)ncnc2c1 [AZD2811] (first compound max 1 µM, 7x7, partner max 1 µM)	-0.0018	-0.0303	0.0761	0.0432	0.365	0.783	0.978	0.265	0.953	0.342	0.623	0.311	0.42	0.349	0.797	0.986	0.301	0.419	0.575	0.949
Cc1c2c(nn1C)CSCc1cc(n(C)n1)CSc1cc(c3ccccc3c1)OCCCc1c(C(=O)O)n(C)c3c-2c(Cl)ccc13 [AZD5991] + C[C@@H]1COCCN1C2=NC(=NC(=C2)C3(CC3)[S@](=N)(=O)C)C4=C5C=CNC5=NC=C4 [AZD6738] (first compound max 1 µM, 7x7, partner max 10 µM)	-0.0259	-0.0167	-0.0283	0.0599	0.593	0.297	0.992	0.403	0.989	0.533	0.335	0.322	0.783	0.85	0.889	0.958	0.556	0.741	0.773	0.828
Cc1c2c(nn1C)CSCc1cc(n(C)n1)CSc1cc(c3ccccc3c1)OCCCc1c(C(=O)O)n(C)c3c-2c(Cl)ccc13 [AZD5991] + C[C@@H](Nc1cc(F)cc(F)c1)c1cc(C(=O)N(C)C)cc2c(=O)cc(N3CCOCC3)oc12 [AZD8186] (first compound max 1 µM, 7x7, partner max 3 µM)	-0.004	-0.0595	-0.0036	-0.0206	0.588	0.203	0.996	0.221	0.898	0.298	0.305	0.517	0.268	0.277	0.717	0.89	0.424	0.279	0.377	0.32
Cc1c2c(nn1C)CSCc1cc(n(C)n1)CSc1cc(c3ccccc3c1)OCCCc1c(C(=O)O)n(C)c3c-2c(Cl)ccc13 [AZD5991] + Cc1cc2ncnn2cc1Nc1ncc2c(n1)n(C1CCOCC1)c(=O)n2C [AZD7648] (first compound max 1 µM, 7x7, partner max 10 µM)	-0.0697	-0.0057	0.045	-0.0251	0.432	0.207	0.996	0.229	0.72	0.298	0.283	0.392	0.225	0.364	0.541	0.854	0.483	0.466	0.517	0.625
Cc1c2c(nn1C)CSCc1cc(n(C)n1)CSc1cc(c3ccccc3c1)OCCCc1c(C(=O)O)n(C)c3c-2c(Cl)ccc13 [AZD5991] + Cn1cnc2c(F)c(Nc3ccc(Br)cc3Cl)c(C(=O)NOCCO)cc21 [Selumetinib] (first compound max 1 µM, 7x7, partner max 3 µM)	0.0203	-0.0269	-0.0263	-0.0118	0.512	0.563	0.995	0.331	0.76	0.316	0.218	0.728	0.255	0.406	0.695	1	0.333	0.236	0.453	0.348
C[C@@H]1COCCN1c1cc(C2([S@](C)(=N)=O)CC2)nc(-c2ccnc3[nH]ccc23)n1 [AZD6738] + O=C(c1cc(Cc2n[nH]c(=O)c3ccccc23)ccc1F)N1CCN(C(=O)C2CC2)CC1 [Olaparib] (first compound max 10 µM, 7x7, partner max 10 µM)	0.045	-0.0125	0.033	0.0337	0.99	0.258	0.437	0.239	0.94	0.408	0.585	0.356	0.935	0.845	0.816	0.614	0.6	0.767	0.527	0.561
Cc1cc2ncnn2cc1Nc1ncc2c(n1)n(C1CCOCC1)c(=O)n2C [AZD7648] + C=CCn1c(=O)c2cnc(Nc3ccc(N4CCN(C)CC4)cc3)nc2n1-c1cccc(C(C)(C)O)n1 [AZD1775] (first compound max 10 µM, partner max 1 µM)	0.016	0.0049	-0.0542	-0.0078	0.7	0.345	0.585	0.361	0.998	0.42	0.389	0.55	0.81	0.678	0.892	0.742	0.535	0.834	0.431	0.424
